The record followed here is PubChem BioAssay AID1645863 (Buhrlage Lab, Dana-Farber Cancer Institute and Novartis …, 2021).

The source made the active and inactive calls. How the calls were made is not given here. Where only a bound is given, the exact number is not on record here.

Chain of Ubiquitin carboxyl-terminal hydrolase 10 (Homo sapiens) (Q14694 whole entry, looked up): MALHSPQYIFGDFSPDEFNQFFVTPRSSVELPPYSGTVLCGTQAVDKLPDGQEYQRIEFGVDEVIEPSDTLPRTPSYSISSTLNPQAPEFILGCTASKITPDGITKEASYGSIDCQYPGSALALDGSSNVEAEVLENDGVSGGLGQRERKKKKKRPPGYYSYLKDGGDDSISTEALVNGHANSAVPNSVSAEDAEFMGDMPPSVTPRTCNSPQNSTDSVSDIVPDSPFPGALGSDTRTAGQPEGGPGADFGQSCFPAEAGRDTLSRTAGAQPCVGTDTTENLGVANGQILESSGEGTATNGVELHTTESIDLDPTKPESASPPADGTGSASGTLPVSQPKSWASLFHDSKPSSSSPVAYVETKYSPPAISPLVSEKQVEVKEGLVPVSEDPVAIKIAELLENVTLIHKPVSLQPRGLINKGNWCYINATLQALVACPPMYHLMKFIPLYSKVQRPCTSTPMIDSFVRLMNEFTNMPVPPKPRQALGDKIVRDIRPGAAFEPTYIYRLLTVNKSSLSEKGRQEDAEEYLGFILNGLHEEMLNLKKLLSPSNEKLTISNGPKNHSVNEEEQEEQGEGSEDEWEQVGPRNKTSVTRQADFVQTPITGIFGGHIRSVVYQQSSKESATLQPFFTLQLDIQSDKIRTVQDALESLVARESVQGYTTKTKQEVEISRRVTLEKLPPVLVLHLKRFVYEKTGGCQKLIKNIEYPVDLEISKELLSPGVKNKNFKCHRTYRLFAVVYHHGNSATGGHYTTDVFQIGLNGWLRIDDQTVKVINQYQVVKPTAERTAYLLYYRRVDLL

This test concerns the target Ubiquitin carboxyl-terminal hydrolase 10 (Homo sapiens) (UniProt Q14694). Nature of the test: primary hit verification, biochemical, ubiquitin-specific protease 10 deubiquitylase inhibitors, concentration-effect titration (AID 1645863).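 Further: potency values describe inhibition of USP10 cleavage of a fluorogenic ubiquitin substrate.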 The conditions noted are these: USP10 deubiquitinase enzymatic assay.
One may read the IC50 as the concentration that inhibits the measured activity by half. As for `C[C@H](Cc1cc2c(cc1O)OCO2)[C@@H](C)Cc1cc2c(cc1O)OCO2`, the IC50 was 19.6 µM.
Take `O=C1CC(c2cc3c(cc2Br)OCO3)c2cc3c(cc2N1)OCCO3` (stereo unspecified): the IC50 was > 40 µM (inactive).
Regarding `O=C(Cn1c(=O)c2cccn2c2ccccc21)NCc1ccc(F)cc1`, the IC50 was > 40 µM (inactive).
The value for `FC(F)(F)c1cccc(Nc2nc(-c3ccccn3)nc3ccccc23)c1` was > 40 µM (inactive).
Regarding `O=C(Cn1cccc(-c2nc(-c3ccccc3)no2)c1=O)Nc1ccccc1F`, the IC50 is > 40 µM (inactive).
Then `O=C(Nc1ccccc1-c1nc2ccccc2[nH]1)c1sc2ccccc2c1Cl`, with 9.23 µM; and `COc1cccc(C(=O)Nc2nc(-c3nnn(-c4ccc(C)c(F)c4)c3C)ns2)c1`, with > 40 µM (inactive); and `O=C(NCc1ccc2c(c1)OCO2)c1cc2c(s1)CCC2`, with 13.2 µM.
Regarding `O=C(Cn1c(=O)n(-c2ccc(Cl)cc2)c(=O)c2c3c(sc21)CCCC3)NCC1CCCO1` (stereo unspecified), the IC50 is > 40 µM (inactive).
Turning to `CCC(C(=O)C(C)C(O)C(C)CCc1ccc(C)c(O)c1C(=O)O)C1OC(CC)(C2CCC(O)(CC)C(C)O2)CC1C` (stereo unspecified), the IC50 was 9.99 µM.
With `Cc1cc(C)c(NC(=O)Cn2c(=O)n(CCC(=O)NCc3ccc4c(c3)OCO4)c(=O)c3sccc32)c(C)c1`, the IC50 was 21.4 µM.
The value for `COc1ccc(-c2cc3nc([C@H](C)NC(=O)CC4CCCC4)nn3cn2)cc1` was > 40 µM (inactive); that for `Nc1c(-c2ccc(Cl)cc2)cnc2cc(-c3ccc(Cl)c(Cl)c3)nn12` was > 40 µM (inactive).
With `O=C(Nc1cc(F)c2nc(N3CCCC3)ccc2c1)c1ccco1`, the IC50 was > 40 µM (inactive).
As for `CS(=O)(=O)c1cccc(-c2nnc(NC(=O)c3ccc(Cc4ccccc4)cc3)o2)c1`, the IC50 was > 40 µM (inactive).
In the case of `Cc1ccc2nc(NC(=O)/C=C/c3ccc4c(c3)OCO4)sc2c1`, the IC50 is 15.1 µM.
On to `O=C(Cn1cnc(-c2noc(-c3cccc(F)c3)n2)c1)Nc1ccccc1`, for which the IC50 was 39.8 µM.
The value for `COc1cc2c(oc(=O)c3cc(C)cc(OC)c32)c2c([C@@H]3OC(C)[C@@H](O)[C@@](C)(O)C3O)ccc(O)c12` (stereo partly specified) was > 40 µM (inactive); that for `Cc1cc(C(=O)CSc2nc3ccccc3[nH]2)c(C)n1Cc1ccco1` was > 40 µM (inactive).
On to `COC(=O)c1ccc2c(=O)n(CCCCCC(=O)NCCc3ccc(S(N)(=O)=O)cc3)c(=O)[nH]c2c1`, for which the IC50 was 24.7 µM.
On to `Cc1ccc(NC(=O)c2cc(-c3ccccn3)nc3c(Cl)cccc23)nc1`, for which the IC50 is > 40 µM (inactive).
The value for `O=C(NC1CCCC1)C1CC(=O)N(c2cccc(-c3noc(-c4cccs4)n3)c2)C1` (stereo unspecified) was > 40 µM (inactive).
`CC1OC2CC(O)C1(O)C1=C2C(O)=C(C(N)=O)C(=N)C1=O` (stereo unspecified): the IC50 is 7.46 µM.
For `COc1cccc(NC(=O)CCc2nnc3n(CCCOC(C)C)c(=O)c4ccccc4n23)c1`, the IC50 was > 40 µM (inactive).
Regarding `CCOc1ccc2c(c1)c(=O)c(C(=O)c1ccc(C)cc1)cn2CC(=O)Nc1ccc(C)cc1`, the IC50 was > 40 µM (inactive).
With `Cc1cccc(NC(=O)CNC(=O)c2ccc(-c3noc(C4CCCC4)n3)cc2)c1C`, the IC50 was > 40 µM (inactive).
Take `CSC1SCC2C(=O)N(C)C(C(C)C(C)C)C(=O)OCC(NC(=O)c3cnc4ccccc4n3)C(=O)NC(C)C(=O)N(C)C1C(=O)N(C)C(C(C)C(C)C)C(=O)OCC(NC(=O)c1cnc3ccccc3n1)C(=O)NC(C)C(=O)N2C` (stereo unspecified): the IC50 is 19.3 µM.
The value for `COc1ccc(C(=O)Nc2ccccc2C(=O)NC(Cc2ccc(O)cc2)C(=O)NNC(=O)c2ccccc2Cl)cc1` (stereo unspecified) was > 40 µM (inactive); that for `COc1ccc(C)cc1NC(=O)C1CC(=O)Nc2nc3ccccc3n21` (stereo unspecified) was 28.1 µM; that for `Cc1ccc(NC(=O)Nc2nnc(CC(=O)NCc3ccccc3)s2)c(Cl)c1` was > 40 µM (inactive).
`CN(C(=O)C1(c2ccccc2)CC1)c1nc2c(s1)CCc1occc1-2`: the IC50 is > 40 µM (inactive).
